Our source for the Ki values is ChEMBL document CHEMBL1150520, “Analogs of UK 14,304: Structural features responsible for 2 adrenoceptor activity” (Bioorg Med Chem Lett, 1995).

The target of one experiment is T1, Adrenergic receptor alpha-1 (Homo sapiens, UniProt P35348+P25100+P35368).
T1 sequence (P35348 whole entry): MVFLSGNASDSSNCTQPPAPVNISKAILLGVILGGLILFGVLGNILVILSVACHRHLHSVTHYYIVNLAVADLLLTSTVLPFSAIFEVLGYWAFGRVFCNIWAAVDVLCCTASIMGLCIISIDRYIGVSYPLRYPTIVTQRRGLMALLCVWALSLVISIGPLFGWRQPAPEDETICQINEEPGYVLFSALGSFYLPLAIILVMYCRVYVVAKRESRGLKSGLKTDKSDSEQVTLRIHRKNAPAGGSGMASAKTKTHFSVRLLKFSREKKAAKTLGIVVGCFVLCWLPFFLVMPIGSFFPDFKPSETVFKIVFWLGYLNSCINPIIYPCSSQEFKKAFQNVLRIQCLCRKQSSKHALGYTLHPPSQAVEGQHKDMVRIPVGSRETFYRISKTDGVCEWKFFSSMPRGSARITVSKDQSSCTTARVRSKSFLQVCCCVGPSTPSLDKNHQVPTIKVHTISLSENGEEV
T1 sequence (P25100 whole entry): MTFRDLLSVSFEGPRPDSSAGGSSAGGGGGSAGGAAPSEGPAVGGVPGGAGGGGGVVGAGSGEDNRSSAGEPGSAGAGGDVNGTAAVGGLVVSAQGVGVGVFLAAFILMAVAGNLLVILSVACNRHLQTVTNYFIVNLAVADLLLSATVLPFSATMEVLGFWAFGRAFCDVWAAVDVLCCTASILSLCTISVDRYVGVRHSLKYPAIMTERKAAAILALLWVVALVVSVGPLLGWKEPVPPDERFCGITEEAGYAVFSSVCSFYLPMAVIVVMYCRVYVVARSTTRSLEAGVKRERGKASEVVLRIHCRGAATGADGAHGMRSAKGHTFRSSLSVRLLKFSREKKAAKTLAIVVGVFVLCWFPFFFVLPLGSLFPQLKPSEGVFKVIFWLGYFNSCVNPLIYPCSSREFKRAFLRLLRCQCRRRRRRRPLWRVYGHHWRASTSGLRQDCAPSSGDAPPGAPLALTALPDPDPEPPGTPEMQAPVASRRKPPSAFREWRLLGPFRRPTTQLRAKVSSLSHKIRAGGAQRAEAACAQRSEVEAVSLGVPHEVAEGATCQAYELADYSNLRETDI
T1 sequence (P35368 whole entry): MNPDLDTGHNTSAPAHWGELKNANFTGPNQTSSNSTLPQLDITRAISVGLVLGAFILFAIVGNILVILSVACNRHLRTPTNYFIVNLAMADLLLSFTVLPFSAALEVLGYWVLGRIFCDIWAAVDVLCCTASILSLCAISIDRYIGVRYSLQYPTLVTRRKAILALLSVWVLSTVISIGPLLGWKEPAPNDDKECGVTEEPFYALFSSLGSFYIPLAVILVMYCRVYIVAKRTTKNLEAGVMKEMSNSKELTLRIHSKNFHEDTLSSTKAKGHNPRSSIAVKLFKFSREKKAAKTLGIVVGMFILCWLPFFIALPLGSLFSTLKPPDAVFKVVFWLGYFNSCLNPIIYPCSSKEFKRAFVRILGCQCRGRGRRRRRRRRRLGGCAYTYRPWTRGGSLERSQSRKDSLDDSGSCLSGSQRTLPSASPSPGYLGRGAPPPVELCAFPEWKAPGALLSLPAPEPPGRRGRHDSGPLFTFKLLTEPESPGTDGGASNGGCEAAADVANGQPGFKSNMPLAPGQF
The experiment is described as follows: Binding affinity for Alpha-1 adrenergic receptor of human cerebral cortex membrane. Type of experiment: tissue-based.
The term Ki denotes the dissociation constant of the complex between target and ligand, obtained from inhibition or displacement. A higher Ki goes with lower affinity. As for `CN(C1=NCCN1)c1ccc2c(c1)OCCO2`, the Ki amounted to 30000 nM.
Take `C/N=C(\NC)Nc1ccc2nccnc2c1Br`: the inhibition constant (Ki) is reported as 10000 nM.
Consider `c1cc2c(cc1NC1=NCCN1)OCCO2`, for which the inhibition constant (Ki) is listed as 2400 nM.
`Cc1c(NC2=NCCN2)ccc2c1NCCN2` came in with an inhibitory constant (Ki) of 8900 nM.
For the molecule `Cc1c(NC2=NCCN2)ccc2c1OCCO2`, the inhibition constant Ki amounted to 130 nM.
`Cc1ccccc1N=C1NCCN1` displayed a Ki of 2500 nM.
Molecule `COc1ccc(NC2=NCCN2)c(C)c1OC` yielded an inhibition constant Ki of 1500 nM.
In turn, `N=C(N)Nc1ccc2nccnc2c1Br` gave a Ki of 17000 nM.

Another experiment deals with T2, Adrenergic receptor alpha-2 (Homo sapiens, UniProt P08913+P18825+P18089).
T2 sequence (P08913 whole entry): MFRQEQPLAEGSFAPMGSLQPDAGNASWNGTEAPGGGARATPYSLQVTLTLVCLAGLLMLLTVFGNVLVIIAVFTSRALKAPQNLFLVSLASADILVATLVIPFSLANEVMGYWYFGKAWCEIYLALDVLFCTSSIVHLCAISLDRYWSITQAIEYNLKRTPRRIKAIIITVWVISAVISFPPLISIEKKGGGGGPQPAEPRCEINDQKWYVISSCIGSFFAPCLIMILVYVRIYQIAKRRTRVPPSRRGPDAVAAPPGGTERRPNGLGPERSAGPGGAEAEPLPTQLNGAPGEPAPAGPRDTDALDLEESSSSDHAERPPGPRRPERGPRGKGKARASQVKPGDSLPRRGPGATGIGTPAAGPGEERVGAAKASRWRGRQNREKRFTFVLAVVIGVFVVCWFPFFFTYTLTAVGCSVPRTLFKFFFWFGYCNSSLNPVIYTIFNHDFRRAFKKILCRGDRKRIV
T2 sequence (P18825 whole entry): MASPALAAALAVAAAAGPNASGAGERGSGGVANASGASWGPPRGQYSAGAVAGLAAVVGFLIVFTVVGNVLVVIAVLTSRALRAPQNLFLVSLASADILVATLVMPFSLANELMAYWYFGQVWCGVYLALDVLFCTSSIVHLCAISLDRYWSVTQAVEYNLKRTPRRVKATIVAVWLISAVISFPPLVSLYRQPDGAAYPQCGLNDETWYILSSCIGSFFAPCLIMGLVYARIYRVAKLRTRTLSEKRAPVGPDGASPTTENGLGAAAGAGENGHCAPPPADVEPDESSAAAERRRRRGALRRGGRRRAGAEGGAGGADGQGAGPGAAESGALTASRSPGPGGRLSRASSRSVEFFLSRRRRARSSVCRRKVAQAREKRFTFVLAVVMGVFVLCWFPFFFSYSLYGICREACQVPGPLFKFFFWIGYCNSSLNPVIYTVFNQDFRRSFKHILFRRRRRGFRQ
T2 sequence (P18089 whole entry): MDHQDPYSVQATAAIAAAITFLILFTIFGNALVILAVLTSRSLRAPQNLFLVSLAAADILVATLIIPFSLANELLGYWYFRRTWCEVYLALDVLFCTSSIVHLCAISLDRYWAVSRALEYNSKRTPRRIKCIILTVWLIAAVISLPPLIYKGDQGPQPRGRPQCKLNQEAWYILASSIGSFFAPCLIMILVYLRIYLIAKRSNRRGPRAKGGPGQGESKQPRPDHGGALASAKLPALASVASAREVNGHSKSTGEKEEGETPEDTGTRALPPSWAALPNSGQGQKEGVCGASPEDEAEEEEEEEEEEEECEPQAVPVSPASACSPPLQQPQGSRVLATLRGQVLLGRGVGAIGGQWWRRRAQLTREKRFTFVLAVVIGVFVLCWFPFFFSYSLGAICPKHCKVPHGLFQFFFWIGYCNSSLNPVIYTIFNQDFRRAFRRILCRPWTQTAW
The experiment is described as follows: Binding affinity for Alpha-2 adrenergic receptor of CHO-C10 membrane preparation. Set-up: species or system Cricetulus griseus.
`CN(C1=NCCN1)c1ccc2c(c1)OCCO2` showed an inhibitory constant (Ki) of 180 nM. That is a sub-micromolar value.
As to `Cc1c(NC2=NCCN2)ccc2c1NCCO2`, the inhibition constant Ki turned out to be 1.2 nM.
In the case of `C/N=C(\NC)Nc1ccc2nccnc2c1Br`, the Ki is listed as 5300 nM.
The molecule `Cc1c(NC2=NCCN2)ccc2c1NCCN2` gave an inhibition constant Ki of 9.6 nM.
Consider `c1cnc2cc(NC3=NCCN3)ccc2n1`, for which the inhibitory constant (Ki) was determined as 41 nM.
On the same count and under the same terms, under `Cc1c(NC2=NCCN2)ccc2c1OCCO2` stands 0.25 nM; under `Cc1ccccc1N=C1NCCN1`, 7.8 nM.
Still for that read-out and setting: for `COc1ccc(NC2=NCCN2)c(C)c1OC` the value was 5.2 nM; for `N=C(N)Nc1ccc2nccnc2c1Br`, 41 nM.
